Assay results: patent US20240002809A1, “FRACTAL CUES SUPPORT HIERARCHICAL MATURATION OF CELLS VIA CURVATURE-INDUCED PATTERNING” (The Governing Council of the University of Toronto, priority 2022, published 2024)

Legend:
Type in all cases: cell-based
[1] = test system: human podocyte cell line on HF substrates; test: Lactate dehydrogenase (LDH) release assay of Mosaic assay cells; conditions: dose of 1 μM, FIG. 13d
Method: YAP Inhibition Study: HF and NT scaffolds were prepared as described above. Mosaic human podocytes were seeded on top of the scaffolds at a concentration of 50,000 cells/cm^2 (100,000 cells per scaffold). […] Samples were fixed on day 5. Media was collected and lactate dehydrogenase assay (LDH) assay (Cayman) was performed according to manufacturer's protocol to validate cell viability. Mosaic assay imaging and analysis were performed as described above.

[2] = test system: human podocyte cell line on HF substrates; test: YAP inhibition study, Mosaic assay fractal dimension of whole cell morphology; conditions: dose of 1 μM, in comparison to the inhibitor-free control, FIG. 13e
Method: Mosaic Assay: Mosaic Podo/Tert256 human podocytes (a mixture of GFP-labelled cells and non-fluorescent cells at a ratio of 1:11) were cultured and seeded in the same way as regular human podocytes as described above. At the study endpoint, cells were fixed with PFA, stained with rhodamine-wheat germ agglutinin (WGA), and mounted with DAPI-containing mounting media as described above. Samples were imaged via confocal microscopy using a Zeiss LSM 880 Super Resolution Confocal microscope to allow sufficient resolution to visualize interdigitated morphology. Z-stacked images spanning the entire section with visible signals were taken for each sample. The images were first processed using Zeiss's ZenDesk software to increase the contrast of GFP-positive cells' morphology as follows: the FITC channel was adjusted by setting gamma to 2.5 and adjusting the white point to 30. The DAPI channel's white point was adjusted to 80. In Photoshop or Fiji, the magic wand tool was used to select single fluorescent cells, create binary masks, and export binary images of single cells. Single cells were verified by overlaying nuclei with the cell images to ensure each cell only contained one nucleus. Binary images were then outlined in Fiji, and fractal analysis was performed using the FracLac plugin where the standard box-counting algorithm was used, with the background locked to white. […]

[3] = test system: Mosaic cells cultured on HF scaffolds; test: Mosaic assay Adriamycin dose test (fractal dimension of cell morphology); conditions: 0.5 and 1 μg/mL ADR; only with Mosaic cells cultured on HF scaffolds (not NT); FIG. 6e, 6f
Text: To develop the mosaic assay, populations of fluorescent cells were mixed with optically silent cells and monitored for over 14 days in the mouse cell line, and over 5 days in the human cell line. For long-term live cell labeling, adenovirus transduction of eGFP (Vector Biolabs, #1060) was utilized at an MOI of 1000 in the mouse podocyte cell line, and MOI of 10 in the human podocyte cell line. Cells were transduced one day after seeding and attachment, when cultures were 75% confluent. Virus handling protocols were used, including wearing additional disposable PPE (lab coat, shoe covers, elbow-length and double gloves, and face mask). […]
The next day, virus was removed and puromycin was applied at 8 μg/mL to select fluorescent cells for 48 hours. […] The mosaic assay was assessed using the Zeiss […] super resolution confocal microscope to allow sufficient resolution to see interdigitating foot processes. […]
Images of single fluorescent cells from the mosaic assay (used in topography, model virus, Adriamycin, and patient serum experiments) were first processed using Zeiss's ZenDesk software to facilitate delineation of whole single cell morphology as follows: the FITC channel was adjusted by setting gamma to 2.5 and adjusting the white point to 30. […] The sequence was recorded as a macro to facilitate automation and thus performed blindly and equivalently to all sample images. […]

## Verteporfin
[1]
  cell viability (LDH release): did not show any significant deterioration of cell viability
[2]
  Df of podocyte morphology: decreased significantly

## COc1cccc2c1C(=O)c1c(O)c3c(c(O)c1C2=O)C[C@@](O)(C(=O)CO)C[C@@H]3O[C@H]1C[C@H](N)[C@H](O)[C@H](C)O1 [Adriamycin, doxorubicin]
[3]
  injury response: fractal dimension of cell morphology: reduced fractal dimension of cell morphology
